The record followed here is patent publication US20220323406A1, “METHODS AND COMPOSITIONS FOR DIFFERENTIATING STEM CELLS” (Massachusetts Institute of Technology, priority 2019, published 2022).

Assay [1] has as its system ENR+CD organoids (ISC to Paneth cell differentiation). The assay is described as follows: Primary screen: basal (non-stimulated) lysozyme secretion LYZ.NS, 2.5-D 384-well ENR+CD organoid differentiation. In kind it is cell-based, mouse. An excerpt: (§1) High-throughput screening.
The test system is the same in assay [2]. The assay is described as follows: Primary screen: CCh-stimulated lysozyme secretion LYZ.S, 2.5-D 384-well ENR+CD organoid differentiation. In kind it is cell-based, mouse. The settings on record: primary screen.
Description: as §1

The next assay deals with ENR+CD organoids. The assay is described as follows: Primary screen: ATP (CellTiter-Glo 3D, CTG) cell number/viability, 2.5-D 384-well ENR+CD organoids.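 Further: compounds given at plating and again on day 3 over a 6-day differentiation from ENR+CV stem-cell-enriched precursors, ATP measured on day 6, plate median as control.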 On the technique in general: In ATP-based viability assays light output follows the ATP content of the culture.
The mark [3] stands for this setting: primary screen, standard z score, dose 0.08 uM.
The mark [4] stands for this setting: primary screen, standard z score, dose 0.40 uM.
[5] abbreviates: primary screen, standard z score, dose 2.00 uM.
Where [6] appears, read: primary screen, standard z score, dose 10.00 uM.
The mark [7] stands for this setting: primary screen, dose 0.08 uM, FC relative to plate median.
Where [8] appears, read: primary screen, dose 0.08 uM, standard z score.
Setting [9] is: primary screen, dose 0.40 uM, FC relative to plate median.
Setting [10] is: primary screen, dose 0.40 uM, standard z score.
Setting [11] is: primary screen, dose 2.00 uM, FC relative to plate median.
[12] abbreviates: primary screen, dose 2.00 uM, standard z score.
Setting [13] is: primary screen, dose 10.00 uM, FC relative to plate median.
The mark [14] stands for this setting: primary screen, dose 10.00 uM, standard z score.
Where [15] appears, read: dose 0.08 uM, FC relative to plate median.
Setting [16] is: dose 0.40 uM, FC relative to plate median.
Where [17] appears, read: dose 2.00 uM, FC relative to plate median.
Where [18] appears, read: dose 10.00 uM, FC relative to plate median.
Where [19] appears, read: primary screen; dose 0.08 uM; FC vs plate median.
The mark [20] stands for this setting: primary screen; dose 0.40 uM; FC vs plate median.
Where [21] appears, read: primary screen; dose 2.00 uM; FC vs plate median.
Where [22] appears, read: primary screen; dose 10.00 uM; FC vs plate median.

`C[C@H](N[C@@H](CCc1ccccc1)C(=O)O)C(=O)N1CCC[C@H]1C(=O)O.O.O` [Enalaprilat Dihydrate]: the Dose.FC.LYZ.NS is reported as 0.003 log2 fold change in assay [1] (primary screen, dose 0.08 uM); −0.003 log2 fold change in assay [1] (primary screen, dose 0.40 uM); −0.022 log2 fold change in assay [1] (primary screen, dose 2.00 uM); −0.157 log2 fold change in assay [1] (primary screen, dose 10.00 uM). Moreover, the Z.LYZ.NS in assay [1] (setting [3]) was 0.027; in assay [1] (setting [4]), −0.030; in assay [1] (setting [5]), −0.195; in assay [1] (setting [6]), −1.364. The Dose.FC.LYZ.S is reported as −0.001 log2 fold change in assay [2] (dose 0.08 uM), 0.111 log2 fold change in assay [2] (dose 0.40 uM), −0.095 log2 fold change in assay [2] (dose 2.00 uM) and −0.281 log2 fold change in assay [2] (dose 10.00 uM). Moreover, the Dose.FC.CTG with ENR+CD organoids (primary screen, dose 0.08 uM) is −0.190 log2 fold change; in the assay with ENR+CD organoids (primary screen, dose 0.40 uM), −0.124 log2 fold change; in the assay on ENR+CD organoids (primary screen, dose 2.00 uM), −0.331 log2 fold change; in the assay with ENR+CD organoids (primary screen, dose 10.00 uM), −0.979 log2 fold change. Further, the Z.CTG with ENR+CD organoids (setting [3]) is −0.454; in the assay on ENR+CD organoids (setting [4]) it was −0.296; with ENR+CD organoids (setting [5]) it was −0.791; in the assay on ENR+CD organoids (setting [6]), −2.338.
As for `N#C[C@@H]1CCCN1C(=O)CNC12CC3CC(CC(O)(C3)C1)C2` [Vildagliptin (LAF-237)], the Dose.FC.LYZ.NS in assay [1] (primary screen, dose 0.08 uM) is given as 0.148 log2 fold change; in assay [1] (primary screen, dose 0.40 uM), 0.230 log2 fold change; in assay [1] (primary screen, dose 2.00 uM), 0.170 log2 fold change; in assay [1] (primary screen, dose 10.00 uM), 0.097 log2 fold change. Besides, the “Z.LYZ.NS (standard z score)” value in assay [1] (primary screen, dose 0.08 uM) is 1.285; in assay [1] (primary screen, dose 0.40 uM) it was 2.004; in assay [1] (primary screen, dose 2.00 uM) it was 1.478; in assay [1] (primary screen, dose 10.00 uM), 0.846. Further, the Dose.FC.LYZ.S in assay [2] (dose 0.08 uM) worked out at 0.099 log2 fold change; in assay [2] (dose 0.40 uM) it was 0.113 log2 fold change; in assay [2] (dose 2.00 uM), 0.038 log2 fold change; in assay [2] (dose 10.00 uM) it was 0.013 log2 fold change. Moreover, the Dose.FC.CTG is 0.232 log2 fold change with ENR+CD organoids (primary screen, dose 0.08 uM); 0.229 log2 fold change with ENR+CD organoids (primary screen, dose 0.40 uM); 0.150 log2 fold change in the assay on ENR+CD organoids (primary screen, dose 2.00 uM); 0.339 log2 fold change in the assay with ENR+CD organoids (primary screen, dose 10.00 uM). The “Z.CTG (standard z score)” value in the assay on ENR+CD organoids (primary screen, dose 0.08 uM) worked out at 0.553; in the assay on ENR+CD organoids (primary screen, dose 0.40 uM) it was 0.547; with ENR+CD organoids (primary screen, dose 2.00 uM), 0.358; with ENR+CD organoids (primary screen, dose 10.00 uM), 0.811.
Turning to `O=[N+]([O-])c1ccc2c(c1)S(=O)(=O)C=C2` [Stattic], the Dose.FC.LYZ.NS in assay [1] (setting [7]) is recorded as 0.130 log2 fold change; in assay [1] (setting [9]), 0.022 log2 fold change; in assay [1] (setting [11]) it was 0.147 log2 fold change; in assay [1] (setting [13]), −0.021 log2 fold change. Further, the Z.LYZ.NS is on record as 1.131 in assay [1] (setting [8]), 0.189 in assay [1] (setting [10]), 1.276 in assay [1] (setting [12]) and −0.186 in assay [1] (setting [14]). In addition, the Dose.FC.LYZ.S in assay [2] (setting [15]) was 0.150 log2 fold change; in assay [2] (setting [16]) it was 0.033 log2 fold change; in assay [2] (setting [17]) it was 0.082 log2 fold change; in assay [2] (setting [18]) it was −0.019 log2 fold change. For the same compound, the Dose.FC.CTG is −0.080 log2 fold change in the assay with ENR+CD organoids (setting [7]), −0.005 log2 fold change in the assay on ENR+CD organoids (setting [9]), 0.033 log2 fold change in the assay on ENR+CD organoids (setting [11]) and −0.025 log2 fold change in the assay with ENR+CD organoids (setting [13]). Also, the Z.CTG was −0.191 in the assay on ENR+CD organoids (setting [8]), −0.011 in the assay with ENR+CD organoids (setting [10]), 0.078 with ENR+CD organoids (setting [12]) and −0.060 with ENR+CD organoids (setting [14]).
As for `CCOC(=O)[C@H]1O[C@@H]1C(=O)N[C@@H](CC(C)C)C(=O)NCCC(C)C` [Aloxistatin], the Dose.FC.LYZ.NS in assay [1] (primary screen, dose 0.08 uM) is recorded as 0.020 log2 fold change; in assay [1] (primary screen, dose 0.40 uM) it was −0.029 log2 fold change; in assay [1] (primary screen, dose 2.00 uM), −0.037 log2 fold change; in assay [1] (primary screen, dose 10.00 uM), −0.142 log2 fold change. Further, the “Z.LYZ.NS (standard z score)” value is given as 0.171 in assay [1] (primary screen, dose 0.08 uM); −0.250 in assay [1] (primary screen, dose 0.40 uM); −0.324 in assay [1] (primary screen, dose 2.00 uM); −1.236 in assay [1] (primary screen, dose 10.00 uM). The Dose.FC.LYZ.S was 0.025 log2 fold change in assay [2] (dose 0.08 uM), −0.016 log2 fold change in assay [2] (dose 0.40 uM), −0.091 log2 fold change in assay [2] (dose 2.00 uM) and −0.181 log2 fold change in assay [2] (dose 10.00 uM). The Dose.FC.CTG with ENR+CD organoids (primary screen, dose 0.08 uM) was −0.006 log2 fold change; in the assay on ENR+CD organoids (primary screen, dose 0.40 uM) it was −0.006 log2 fold change; in the assay on ENR+CD organoids (primary screen, dose 2.00 uM), −0.129 log2 fold change; with ENR+CD organoids (primary screen, dose 10.00 uM) it was −0.214 log2 fold change.
As for `CN1CC(=O)N2[C@H](c3ccc4c(c3)OCO4)c3[nH]c4ccccc4c3C[C@@H]2C1=O` [Tadalafil], the Dose.FC.LYZ.NS is recorded as 0.102 log2 fold change in assay [1] (setting [7]), 0.027 log2 fold change in assay [1] (setting [9]), 0.130 log2 fold change in assay [1] (setting [11]) and 0.061 log2 fold change in assay [1] (setting [13]). The Z.LYZ.NS in assay [1] (setting [8]) was determined as 0.887; in assay [1] (setting [10]), 0.233; in assay [1] (setting [12]), 1.128; in assay [1] (setting [14]) it was 0.534. Further, the Dose.FC.LYZ.S was found to be 0.091 log2 fold change in assay [2] (setting [15]), 0.095 log2 fold change in assay [2] (setting [16]), 0.223 log2 fold change in assay [2] (setting [17]) and 0.148 log2 fold change in assay [2] (setting [18]). The Dose.FC.CTG in the assay on ENR+CD organoids (setting [7]) is given as −0.019 log2 fold change; in the assay on ENR+CD organoids (setting [9]), 0.361 log2 fold change; in the assay with ENR+CD organoids (setting [11]), 0.436 log2 fold change; in the assay on ENR+CD organoids (setting [13]), 0.270 log2 fold change.
For `CCCC(=O)Nc1cccc(NC(=O)c2ccccc2Br)c1` [ML161], the Z.LYZ.NS in assay [1] (setting [8]) is on record as 0.158; in assay [1] (setting [10]), −0.237; in assay [1] (setting [12]), 0.323; in assay [1] (setting [14]) it was −0.494. In addition, the Dose.FC.LYZ.NS was 0.018 log2 fold change in assay [1] (setting [19]), −0.027 log2 fold change in assay [1] (setting [20]), 0.037 log2 fold change in assay [1] (setting [21]) and −0.057 log2 fold change in assay [1] (setting [22]). Moreover, the Dose.FC.LYZ.S in assay [2] (dose 0.08 uM, FC vs plate median) was 0.017 log2 fold change; in assay [2] (dose 0.40 uM, FC vs plate median), −0.027 log2 fold change; in assay [2] (dose 2.00 uM, FC vs plate median), 0.024 log2 fold change; in assay [2] (dose 10.00 uM, FC vs plate median) it was −0.066 log2 fold change. Further, the Z.CTG was 0.205 in the assay with ENR+CD organoids (setting [8]), 0.067 in the assay on ENR+CD organoids (setting [10]), 0.157 in the assay with ENR+CD organoids (setting [12]) and −0.084 with ENR+CD organoids (setting [14]). Also, the Dose.FC.CTG in the assay on ENR+CD organoids (setting [19]) is given as 0.086 log2 fold change; in the assay with ENR+CD organoids (setting [20]), 0.028 log2 fold change; with ENR+CD organoids (setting [21]) it was 0.066 log2 fold change; in the assay with ENR+CD organoids (setting [22]), −0.035 log2 fold change.
